Legend:
NKX2-5-eGFP/w hESCs = assay: Cardiac differentiation of hESCs with RA, flow cytometry for GFP at day 15; assay type: cell-based, human
Text: A cocktail of cytokines (Fig1A) was used to initiate cardiac differentiation in NKX2-5-eGFP/w hESCs as described previously (Ng et al, [2008]; Elliott et al, [2011]). To direct differentiating hESCs toward an atrial phenotype, timing and concentration of treatment with RA were carefully optimized (Supplementary Fig S1A–C). We hypothesized that specification of CM subtypes in vitro occurs post-mesoderm formation and prior to the onset of cardiac progenitor stage. Accordingly, embryoid bodies (EBs) were supplemented with RA from day 4, just after the transient expression of early cardiac mesoderm marker, MESP1, until day 7, a time point at which key transcription factors such as NKX2.5, GATA4 and MEF2C important for commitment and specification of cardiovascular lineages are activated (Supplementary Fig S1A).
Therefore, treatment of differentiating hESCs with 1 μmol/l of RA from day 4 to 7 was considered to be most suitable for driving atrial differentiation. As a control, every experiment included parallel differentiating cultures treated with 0.002% DMSO (the final concentration in RA-treated cultures) from day 4 to 7 (Fig1A).
A transgenic NKX2-5-eGFP/w hESC line that faithfully reports endogenous NKX2.5 expression by GFP was described previously (Elliott et al, [2011]). […]
Gene expression was determined on the HumanHT-12 v4 Expression BeadChip at ServiceXS, Leiden, The Netherlands. […]

embryoid bodies (EBs) = assay: Beating frequency of embryoid bodies from CT or RA differentiations; assay type: cell-based, human; conditions: RA-treated EBs, N=16, 37 degrees; control 45/min
Text: EMBO Molecular Medicine Peer Review Process File - EMM-2014-04757
Please, discuss this finding.
The reviewer raises an important point and we have now discussed this finding on page-17 of the
the atrial-selective ion channel gene, KCNA5. These experiments also established that KCNJ3 and
KCNJ5 are regulated by COUP-TFII.
KCNJ3 and KCNJ5 in atrial CMs. Future studies aimed at dissecting the roles of COUP-TFI and
COUP-TFII during atrial differentiation are required to understand whether these genes act in
It also remains to be tested if
loss of COUP-TFI can be rescued by COUP-TFII and vice versa. However, since myocardial
ablation of COUP-TFII in the mouse results in a severe phenotype (25), it seems unlikely that
COUP-TFI can account for loss of COUP-TFII. Nonetheless, it is likely that deletion of both COUP-
TFI and COUP-TFII might result in a more severe phenotype”.
On page 5 a Fig S1G is introduced; this should be Fig S1F
This was an error, which has now been corrected.
Fig S2 is not introduced in the main text.
We apologize for the missing text describing Fig. S2. This is now included on page 6 of the revised
Fig 5 panel G label must be corrected. […]
a platform maintained at 37 degrees. We determined the beating frequency of N=16 EBs each. […]
rates recorded were 45/min in control EBs and 60/min in RA-treated EBs (Error bars represent […]

`CC1=C(/C=C/C(C)=C/C=C/C(C)=C/C(=O)O)C(C)(C)CCC1` [RA, all-trans retinoic acid] was tested, and the “percentage of GFP+ cells at day 15” value (NKX2-5-eGFP/w hESCs; RA 1 μmol/l day 4 to 7, flow cytometry, control 65%) was 50%, the “effect on cardiac differentiation (percentage of GFP+ cells at day 15)” value (NKX2-5-eGFP/w hESCs; RA 1–10 nmol/l day 4 to 7) was “enhanced cardiac differentiation” and the “beating frequency of EBs” value (embryoid bodies (EBs)) was 60 min⁻¹.
